Experiments:
[1] = Formation of the xylenol orange/Fe3+ complex by EP; settings: for Log10 (Formation Rate) / XO/Fe^3+ Formation Rate: AcEP and 250 µM FeSO4 in methanol/H2O (9:1); for XO/Fe^3+ Formation Rate: mean ± SD of 3 experiments
Source text: In subsequent experiments, we explored the activation of EP and possible cellular consequences of these compounds in Leishmania. In a chemical system, we tested how fast EP react with iron (II) and, therefore, lead to the activation of these compounds. Resulting iron (III) was detected as complex with xylenol orange (XO, Figure 3). The reaction rate of the EP stretched across two magnitudes of orders (Table 3). On the first view, there is no direct link between the activation rates and the efficiency of the compounds against Leishmania.
XO (125 µM) and butylated hydroxytoluene (4 mM) were dissolved in MeOH/H2O (9:1). FeSO4 (25 mM) in 2.5 M H2SO4 was prepared immediately before use (final concentration of 250 µM FeSO4 in the color reagent). An aliquot of 100 µL EP solution (final concentration of 100 µM) was transferred into a disposable cuvette (BRAND, Wertheim, Germany), and 1 mL of the color reagent was added. The EP that reacted slower were incubated for 0, 30, 60, and 90 min at 25 °C. The EP that reacted faster were measured every 5 s over 5 min. At these time points, the OD difference of the sample at 560 nm and 650 nm was determined using a MS1501 UV–VIS diode array spectrophotometer (Shimadzu, Kyoto, Japan). As reference, a mixture of MeOH/H2O (9:1) was used. The slope of the reaction rate was calculated using an extinction coefficient of 1.5 × 10^4 M^−1 cm^−1.

[2] = UV detection of cycloreversion (thermal decomposition) of AcEP; assay type: physicochemical; settings: 40 µM AcEP in EtOH at 70 °C over up to 23 h, UV spectra
Experimental: To determine EP decomposition, we recorded at first the UV spectra of the parent Ac compound and then observed the spectral changes of the corresponding EP during incubation in EtOH (Figure 7). […] Spectral changes in these compounds rather indicate other decomposition pathways.
A sample of the corresponding Ac in 1.5 mL EtOH (final concentrations 2, 8, or 10 µM) was transferred into a quartz cuvette and measured by an UV–VIS spectrometer (U3300, Hitachi, Tokyo, Japan) at 70 °C. Afterwards, an aliquot of the corresponding AcEP dissolved in EtOH (final concentration 40 µM) was pipetted into a cuvette, and its UV spectra were measured at 70 °C in a time interval of 1 h over a period of 23 h. After measurements, the re-appearance of the Ac absorption pattern was verified.

[3] = system: Leishmania tarentolae promastigotes (LtP); assay: LtP viability combination assay with NAC or PIH; assay type: cell-based; settings: 2 × 10^6 LtP/mL; for Change of IC50 value in LtP by addition of PIH: 50 µM PIH; for Change of IC50 value in LtP by addition of NAC: 2 mM NAC
Source text: Based on the findings from chemical test systems, we studied the actual activation of these EP compounds in LtP. For this purpose, we used the established viability assays for Leishmania and studied how IC50 values were changed by the presence of the typical radical scavenger N-acetyl cysteine (NAC) or the iron chelator for low molecular iron pyridoxal isonicotinoyl hydrazine (PIH). We expressed the changes of the IC50 values in the presence of these additional compounds in percent, referring to the original IC50 values in LtP set to 100% (Figure 8). […] Likewise, in the presence of the iron chelator PIH, the IC50 values of most EP in LtP shifted to higher values.
Assay medium of YEM (20.7 g/L yeast extract powder, 1.2 g/L K2HPO4, 0.2 g/L KH2PO4, 2.9 g/L glucose, pH 7.4) and PBS (1:1, v/v), 25,000 U/L penicillin, 25 mg/L streptomycin, and 7.7 µM hemin was prepared. Aliquots of 200 µL of this medium and 2 × 10^6 LtP/mL (where required) were distributed in non-treated cell culture 96-well plates. Compounds (dissolved in DMSO) were added with starting concentrations of 25 µM (Pen) or 200 µM (AcEP/Ac), and then, serial dilutions were carried out resulting in a set of concentrations (25, 5, 1, 0.2, 0.04, and 0.008 µM) or (200, 40, 8, 1.6, 0.32, and 0.064 µM). For each compound concentration, at least triplicates on each plate were performed. After incubation of the plates at 27 °C for 48 h, 50 µL of resazurin solution (final concentration in wells 20 µM) was added to each well and after 4 h of incubation, the fluorescence was measured at 560 nm excitation and 590 nm emission using a plate reader (Perkin Elmer EnSpire, Rodgau, Germany) (adapted from). Combination assays for viability in the presence of PIH and NAC were performed the same way. However, one half of the plate was filled with YEM/PBS with 2 × 10^6 LtP/mL, and the other half of the plate was filled with YEM/PBS with 2 × 10^6 LtP/mL supplemented with non-toxic concentrations of PIH (50 µM) or NAC (2 mM), so that for each plate, two compounds were tested with and without the presence of PIH or NAC. All tests were repeated at least on four different weeks of cultivation.

c1ccc(C23OOC(c4ccccc4)(c4ccccc42)c2ccccc23)cc1 [DPAcEP]
Log10 (Formation Rate) [1]: 2.83
XO/Fe^3+ Formation Rate [1]: 677 ± 86 nmol/min
Cycloreversion to the parent Ac compound (thermal decomposition) [2]: clear reformation of the parent Ac compound over time
Change of IC50 value in LtP by addition of PIH [3]: increase of IC50 values
Change of IC50 value in LtP by addition of NAC [3]: did not respond, but rather displayed even lower IC50 values

CC(C)(C)c1ccc2c(c1)C1(c3cccnc3)OOC2(c2cccnc2)c2ccccc21 (stereo not drawn) [mPyBuAcEP]
Log10 (Formation Rate) [1]: 2.86
XO/Fe^3+ Formation Rate [1]: 731 ± 111 nmol/min
Activation by iron (II), in words ([1]; XO assay): rather slow activation by iron (II)
Cycloreversion to the parent Ac compound (thermal decomposition) [2]: clear reformation of the parent Ac compound over time
Change of IC50 value in LtP by addition of PIH [3]: increase of IC50 values
Change of IC50 value in LtP by addition of NAC [3]: higher IC50 values in the presence of the thiol NAC

c1ccc(C23OOC(c4ccccn4)(c4ccccc42)c2ccccc23)nc1 [oPyAcEP]
Log10 (Formation Rate) [1]: 4.91
XO/Fe^3+ Formation Rate [1]: 81,700 ± 11,921 nmol/min
Cycloreversion to the parent Ac compound (thermal decomposition) [2]: did not undergo conversion to the parent Ac compound
Change of IC50 value in LtP by addition of PIH [3]: no increase was observed
Change of IC50 value in LtP by addition of NAC [3]: higher IC50 values in the presence of the thiol NAC

C[n+]1ccc(C23OOC(c4cc[n+](C)cc4)(c4ccccc42)c2ccccc23)cc1 [Compound 1062MeAcEP]
Log10 (Formation Rate) [1]: 2.78
XO/Fe^3+ Formation Rate [1]: 609 ± 27 nmol/min
Change of IC50 value in LtP by addition of PIH [3]: increase of IC50 values
Change of IC50 value in LtP by addition of NAC [3]: higher IC50 values in the presence of the thiol NAC

COc1ccccc1C12OOC(c3ccccc3OC)(c3ccccc31)c1ccccc12 [oOMeAcEP]
Log10 (Formation Rate) [1]: 2.73
XO/Fe^3+ Formation Rate [1]: 545 ± 17 nmol/min
Change of IC50 value in LtP by addition of PIH [3]: increase of IC50 values
Change of IC50 value in LtP by addition of NAC [3]: did not respond, but rather displayed even lower IC50 values

Reference: paper PMC9612231, “Antileishmanial Anthracene Endoperoxides: Efficacy In Vitro, Mechanisms and Structure-Activity Relationships” (Molecules, 2022)
